Laboratory results published in patent US20230015478A1, “GLP-1 RECEPTOR AGONISTS HAVING IMPROVED PHARMACOLOGICAL AND DRUG DELIVERY PROPERTIES” (priority 2021, published 2023).
Read-outs that look alike come from different tables or passages of the source. Square brackets hold non-standard residues; d marks the D form. Peptide text beside a SMILES is read from it. Bip = N[C@@H](Cc1ccc(-c2ccccc2)cc1)C(=O)O; αMePhe(2-F) = C[C@](N)(Cc1ccccc1F)C(=O)O; Phe(2-Cl) = N[C@@H](Cc1ccccc1Cl)C(=O)O; Phe(2-F) = N[C@@H](Cc1ccccc1F)C(=O)O; hPhe = N[C@@H](CCc1ccccc1)C(=O)O; Aib = CC(C)(N)C(=O)O

Target: T1, hGLP1 receptor (Homo sapiens, UniProt P43220)
T1 construct: expressed in transfected cells; host or cells: HEK (human embryonic kidney) cells co-expressing hGLP1 receptor and CRE-Luciferase
Experiment: cAMP HTRF agonist assay in HEK cells co-expressing hGLP1 receptor and CRE-Luciferase
Type: cell-based
Protocol: Human embryonic kidney cells (HEK) co-expressing the hGLP1 receptor and CRE-Luciferase construct were used to determine agonist potency in this assay. The cells were thawed briefly at 37° C., transferred to a sterile tube and re-suspended in complete media at 37° C. Cells were centrifuged at 1000 rpm for 5 minutes and cells collected; cells were re-suspended in assay buffer consisting of DPBS (GIBCO) with 500 μM of the phosphodiesterase inhibitor IBMX. […] The optimal cell density was determined to be 1000 cells/well; cells were added to wells in 384-well plates containing appropriate pre-prepared dilutions of compounds (test peptides or reference compound exendin-4), sealed and incubated with CO2 for 30 min. Test peptide solutions were diluted from 10 mM stock solutions; for most peptides an initial run was performed in duplicate from a maximal concentration of 1.0 μM, with 11 concentrations tested for each peptide using serial 1:3 dilution from this maximal concentration. […] The agonist assay was a homogeneous time-resolved fluorescence (HTRF) assay (Cisbio).
Following incubation of the cells for 30 minutes with test or reference peptides, 5 μL of the cAMP acceptor cAMP-d2, prepared previously as a working solution from frozen stock (1:20 dilution), was added to each well of the assay plate, along with 5 μL of anti-cAMP antibody-cryptate working solution (diluted 1:20 from frozen stock). The wells were incubated for 1 hour at room temperature, and fluorescence was then read at 665 and 615 nm with an Envision reader with TRF laser. Data were saved and analyzed using Prism software (GraphPad). Concentration-response analysis was performed using 4-parameter logistic fits of the resulting data, and EC50 values obtained for each test and reference compound.

[1] = Table 5, 0% albumin, read-out: cAMP EC50, nM (0% albumin)
[2] = cAMP EC50, nM (0.1% albumin), Table 1, 0.1% albumin
[3] = cAMP EC50, nM (0.1% albumin), Table 4, 0.1% albumin
[4] = cAMP EC50, nM (0.1% albumin), Table 6, 0.1% albumin

T1 sequence (P43220 24-463): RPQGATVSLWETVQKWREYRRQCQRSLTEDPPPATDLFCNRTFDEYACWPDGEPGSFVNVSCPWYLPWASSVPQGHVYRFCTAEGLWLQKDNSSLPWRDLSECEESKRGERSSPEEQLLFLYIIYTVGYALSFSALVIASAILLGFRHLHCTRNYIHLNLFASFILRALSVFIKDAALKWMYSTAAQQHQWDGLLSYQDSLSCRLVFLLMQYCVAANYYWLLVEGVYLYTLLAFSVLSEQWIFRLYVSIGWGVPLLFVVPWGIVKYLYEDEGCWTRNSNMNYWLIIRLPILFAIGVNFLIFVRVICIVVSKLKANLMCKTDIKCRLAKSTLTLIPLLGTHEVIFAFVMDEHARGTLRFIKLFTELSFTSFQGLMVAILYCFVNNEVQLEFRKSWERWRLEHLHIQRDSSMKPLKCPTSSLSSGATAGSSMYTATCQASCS

## C[C@@H](O)[C@H](NC(=O)CNC(=O)[C@H](CCC(=O)O)NC(=O)C(C)(C)NC(=O)[C@@H](N)Cc1c[nH]cn1)C(=O)N[C@@H](Cc1ccccc1)C(=O)N[C@H](C(=O)N[C@@H](CO)C(=O)N[C@@H](CC(=O)O)C(=O)N[C@@H](Cc1ccc(-c2ccccc2)cc1)C(=O)N[C@@H](Cc1ccc(-c2ccccc2)cc1)C(N)=O)[C@@H](C)O [1-1, H2N-His-Aib-Glu-Gly-Thr-Phe-Thr-Ser-Asp-Bip-Bip-C(O)NH2] (H-H[Aib]EGTFTSD[Bip][Bip]-NH2)
[1]
  EC50: 6.82 nM
[2]
  EC50: 6.82 nM

## C[C@@H](O)[C@H](NC(=O)CNC(=O)[C@H](CCC(=O)O)NC(=O)C(C)(C)NC(=O)[C@@H](N)Cc1c[nH]cn1)C(=O)N[C@@](C)(Cc1ccccc1F)C(=O)N[C@H](C(=O)N[C@@H](CO)C(=O)N[C@@H](CC(=O)O)C(=O)N[C@@H](Cc1ccc(-c2ccccc2)cc1)C(=O)N[C@@H](Cc1ccc(-c2ccccc2)cc1)C(N)=O)[C@@H](C)O [1-2, H2N-His-Aib-Glu-Gly-Thr-α-MePhe(2-F)-Thr-Ser-Asp-Bip-Bip-C(O)NH2] (H-H[Aib]EGT[αMePhe(2-F)]TSD[Bip][Bip]-NH2)
[1]
  EC50: 0.09 nM
[2]
  EC50: 0.09 nM
cAMP EC50, nM (0.1% albumin), Table 3, 0.1% albumin
  EC50: 0.09 nM
[3]
  EC50: 0.09 nM
[4]
  EC50: 0.09 nM

## C[C@@H](O)[C@H](NC(=O)CNC(=O)[C@H](CCC(=O)O)NC(=O)C(C)(C)NC(=O)[C@@H](N)Cc1c[nH]cn1)C(=O)N[C@@](C)(Cc1ccccc1F)C(=O)N[C@H](C(=O)N[C@@H](CO)C(=O)N[C@@H](CC(=O)O)C(=O)N[C@@H](CCc1ccccc1)C(=O)N[C@@H](Cc1ccc(-c2ccccc2)cc1)C(N)=O)[C@@H](C)O [1-3, H2N-His-Aib-Glu-Gly-Thr-α-MePhe(2-F)-Thr-Ser-Asp-Hph-Bip-C(O)NH2] (H-H[Aib]EGT[αMePhe(2-F)]TSD[hPhe][Bip]-NH2)
[1]
  EC50: 11 nM

## C[C@@H](O)[C@H](NC(=O)CNC(=O)[C@H](CCC(=O)O)NC(=O)C(C)(C)NC(=O)[C@@H](N)Cc1c[nH]cn1)C(=O)N[C@@](C)(Cc1ccccc1F)C(=O)N[C@H](C(=O)N[C@@H](CO)C(=O)N[C@@H](CC(=O)O)C(=O)N[C@@H](Cc1ccc(-c2ccccc2)cc1)C(=O)N[C@@H](CCc1ccccc1)C(N)=O)[C@@H](C)O [1-4, H2N-His-Aib-Glu-Gly-Thr-α-MePhe(2-F)-Thr-Ser-Asp-Bip-Hph-C(O)NH2] (H-H[Aib]EGT[αMePhe(2-F)]TSD[Bip][hPhe]-NH2)
[1]
  EC50: 11 nM
[4]
  EC50: 11 nM

## C[C@@H](O)[C@H](NC(=O)CNC(=O)[C@H](CCC(=O)O)NC(=O)C(C)(C)NC(=O)[C@H](Cc1c[nH]cn1)NC(=O)[C@@H](N)CCCNC(=N)N)C(=O)N[C@@H](Cc1ccccc1)C(=O)N[C@H](C(=O)N[C@@H](CO)C(=O)N[C@@H](CC(=O)O)C(=O)N[C@@H](Cc1ccc(-c2ccccc2)cc1)C(=O)N[C@@H](Cc1ccc(-c2ccccc2)cc1)C(N)=O)[C@@H](C)O [2-1, H2N-Arg-His-Aib-Glu-Gly-Thr-Phe-Thr-Ser-Asp-Bip-Bip-C(O)NH2] (H-RH[Aib]EGTFTSD[Bip][Bip]-NH2)
[3]
  EC50: 10.6 nM

## C[C@@H](O)[C@H](NC(=O)CNC(=O)[C@H](CCC(=O)O)NC(=O)C(C)(C)NC(=O)[C@H](Cc1c[nH]cn1)NC(=O)[C@@H](N)CCC(=O)O)C(=O)N[C@@H](Cc1ccccc1)C(=O)N[C@H](C(=O)N[C@@H](CO)C(=O)N[C@@H](CC(=O)O)C(=O)N[C@@H](Cc1ccc(-c2ccccc2)cc1)C(=O)N[C@@H](Cc1ccc(-c2ccccc2)cc1)C(N)=O)[C@@H](C)O [2-2, H2N-Glu-His-Aib-Glu-Gly-Thr-Phe-Thr-Ser-Asp-Bip-Bip-C(O)NH2] (H-EH[Aib]EGTFTSD[Bip][Bip]-NH2)
[3]
  EC50: 40.1 nM

## C[C@@H](O)[C@H](NC(=O)CNC(=O)[C@H](CCC(=O)O)NC(=O)C(C)(C)NC(=O)[C@H](Cc1c[nH]cn1)NC(=O)CN)C(=O)N[C@@H](Cc1ccccc1)C(=O)N[C@H](C(=O)N[C@@H](CO)C(=O)N[C@@H](CC(=O)O)C(=O)N[C@@H](Cc1ccc(-c2ccccc2)cc1)C(=O)N[C@@H](Cc1ccc(-c2ccccc2)cc1)C(N)=O)[C@@H](C)O [2-3, H2N-Gly-His-Aib-Glu-Gly-Thr-Phe-Thr-Ser-Asp-Bip-Bip-C(O)NH2] (H-GH[Aib]EGTFTSD[Bip][Bip]-NH2)
[3]
  EC50: 21.1 nM

## C[C@@H](O)[C@H](NC(=O)CNC(=O)[C@H](CCC(=O)O)NC(=O)C(C)(C)NC(=O)[C@H](Cc1c[nH]cn1)NC(=O)[C@@H]1CCCN1)C(=O)N[C@@H](Cc1ccccc1)C(=O)N[C@H](C(=O)N[C@@H](CO)C(=O)N[C@@H](CC(=O)O)C(=O)N[C@@H](Cc1ccc(-c2ccccc2)cc1)C(=O)N[C@@H](Cc1ccc(-c2ccccc2)cc1)C(N)=O)[C@@H](C)O [2-4, H2N-Pro-His-Aib-Glu-Gly-Thr-Phe-Thr-Ser-Asp-Bip-Bip-C(O)NH2] (H-PH[Aib]EGTFTSD[Bip][Bip]-NH2)
[3]
  EC50: 14.7 nM

## C[C@@H](O)[C@H](NC(=O)CNC(=O)[C@H](CCC(=O)O)NC(=O)C(C)(C)NC(=O)[C@H](Cc1c[nH]cn1)NC(=O)[C@@H](N)Cc1c[nH]c2ccccc12)C(=O)N[C@@H](Cc1ccccc1)C(=O)N[C@H](C(=O)N[C@@H](CO)C(=O)N[C@@H](CC(=O)O)C(=O)N[C@@H](Cc1ccc(-c2ccccc2)cc1)C(=O)N[C@@H](Cc1ccc(-c2ccccc2)cc1)C(N)=O)[C@@H](C)O [2-5, H2N-Trp-His-Aib-Glu-Gly-Thr-Phe-Thr-Ser-Asp-Bip-Bip-C(O)NH2] (H-WH[Aib]EGTFTSD[Bip][Bip]-NH2)
[3]
  EC50: 10.9 nM

## CC(C)C[C@H](NC(=O)[C@@H](N)CCC(=O)O)C(=O)NC(C)(C)C(=O)N[C@@H](CCC(=O)O)C(=O)NCC(=O)N[C@H](C(=O)N[C@@](C)(Cc1ccccc1F)C(=O)N[C@H](C(=O)N[C@@H](CO)C(=O)N[C@@H](CC(=O)O)C(=O)N[C@@H](Cc1ccc(-c2ccccc2)cc1)C(=O)N[C@@H](Cc1ccc(-c2ccccc2)cc1)C(N)=O)[C@@H](C)O)[C@@H](C)O [2-6, H2N-Glu-Leu-Aib-Glu-Gly-Thr-α-MePhe(2-F)-Thr-Ser-Asp-Bip-Bip-C(O)NH2] (H-EL[Aib]EGT[αMePhe(2-F)]TSD[Bip][Bip]-NH2)
[3]
  EC50: 9.2 nM

## CC(C)C[C@H](NC(=O)[C@@H](N)CCC(=O)O)C(=O)NC(C)(C)C(=O)N[C@@H](CC(=O)O)C(=O)NCC(=O)N[C@H](C(=O)N[C@@](C)(Cc1ccccc1F)C(=O)N[C@H](C(=O)N[C@@H](CO)C(=O)N[C@@H](CC(=O)O)C(=O)N[C@@H](Cc1ccc(-c2ccccc2)cc1)C(=O)N[C@@H](Cc1ccc(-c2ccccc2)cc1)C(N)=O)[C@@H](C)O)[C@@H](C)O [2-7, H2N-Glu-Leu-Aib-Asp-Gly-Thr-α-MePhe(2-F)-Thr-Ser-Asp-Bip-Bip-C(O)NH2] (H-EL[Aib]DGT[αMePhe(2-F)]TSD[Bip][Bip]-NH2)
[3]
  EC50: 3.1 nM

## CC(C)C[C@H](NC(=O)[C@@H](N)Cc1ccccc1)C(=O)NC(C)(C)C(=O)N[C@@H](CCC(=O)O)C(=O)NCC(=O)N[C@H](C(=O)N[C@@](C)(Cc1ccccc1F)C(=O)N[C@H](C(=O)N[C@@H](CO)C(=O)N[C@@H](CC(=O)O)C(=O)N[C@@H](Cc1ccc(-c2ccccc2)cc1)C(=O)N[C@@H](Cc1ccc(-c2ccccc2)cc1)C(N)=O)[C@@H](C)O)[C@@H](C)O [2-8, H2N-Phe-Leu-Aib-Glu-Gly-Thr-α-MePhe(2-F)-Thr-Ser-Asp-Bip-Bip-C(O)NH2] (H-FL[Aib]EGT[αMePhe(2-F)]TSD[Bip][Bip]-NH2)
[3]
  EC50: 4.1 nM

## CC(C)C[C@H](NC(=O)[C@@H](N)Cc1c[nH]cn1)C(=O)NC(C)(C)C(=O)N[C@@H](CC(=O)O)C(=O)NCC(=O)N[C@H](C(=O)N[C@@](C)(Cc1ccccc1F)C(=O)N[C@H](C(=O)N[C@@H](CO)C(=O)N[C@@H](CC(=O)O)C(=O)N[C@@H](Cc1ccc(-c2ccccc2)cc1)C(=O)N[C@@H](Cc1ccc(-c2ccccc2)cc1)C(N)=O)[C@@H](C)O)[C@@H](C)O [2-9, H2N-His-Leu-Aib-Asp-Gly-Thr-α-MePhe(2-F)-Thr-Ser-Asp-Bip-Bip-C(O)NH2] (H-HL[Aib]DGT[αMePhe(2-F)]TSD[Bip][Bip]-NH2)
[3]
  EC50: 6.4 nM

## C[C@@H](O)[C@H](NC(=O)CNC(=O)[C@H](CCC(=O)O)NC(=O)C(C)(C)NC(=O)[C@@H](N)Cc1c[nH]cn1)C(=O)N[C@@H](Cc1ccccc1F)C(=O)N[C@H](C(=O)N[C@@H](CO)C(=O)N[C@@H](CC(=O)O)C(=O)N[C@@H](Cc1ccc(-c2ccccc2)cc1)C(=O)N[C@@H](Cc1ccc(-c2ccccc2)cc1)C(N)=O)[C@@H](C)O [3-1, H2N-His-Aib-Glu-Gly-Thr-Phe(2-F)-Thr-Ser-Asp-Bip-Bip-C(O)NH2] (H-H[Aib]EGT[Phe(2-F)]TSD[Bip][Bip]-NH2)
[2]
  EC50: 0.32 nM

## C[C@@H](O)[C@H](NC(=O)CNC(=O)[C@H](CCC(=O)O)NC(=O)C(C)(C)NC(=O)[C@@H](N)Cc1c[nH]cn1)C(=O)N[C@@H](Cc1ccccc1Cl)C(=O)N[C@H](C(=O)N[C@@H](CO)C(=O)N[C@@H](CC(=O)O)C(=O)N[C@@H](Cc1ccc(-c2ccccc2)cc1)C(=O)N[C@@H](Cc1ccc(-c2ccccc2)cc1)C(N)=O)[C@@H](C)O [3-2, H2N-His-Aib-Glu-Gly-Thr-Phe(2-Cl)-Thr-Ser-Asp-Bip-Bip-C(O)NH2] (H-H[Aib]EGT[Phe(2-Cl)]TSD[Bip][Bip]-NH2)
[2]
  EC50: 4.5 nM
